According to US10226514B2, “Methods and compositions for reducing blood glucose levels” (The Children's Medical Center Corporation, priority 2011, dated 2019):
Entries after “also recorded” stand apart in the source; their conditions may differ.

Tests used:
[1] = test system: XBP1s; test: Cytoplasmic and nuclear XBP1s protein in cells; assay type: cell-based, mouse; details: anisomycin 25 ng/ml, two hours
Protocol: Cytoplasmic and nuclear protein fractions were extracted from cells by using nuclear protein extraction kit from Active Motif (Carlsbad, Calif.). Cells were maintained in 10 cm tissue culture dishes for nuclear/cytoplasmic extraction. After removal of the media, cells were washed with ice-cold phosphate buffered saline (PBS) containing phosphatase inhibitors. Subsequently, 3 ml of ice-cold PBS with phosphatase inhibitors was added and then cells were scrapped out of the dish. Collected cells were separated from PBS by centrifugation for 5 minutes at 500 rpm and resuspended with 500 μl of 1× hypotonic buffer. After 15-minute incubation in hypotonic buffer on ice, 25 μl of supplied detergent was added and cells were vortexed 10 seconds. Cells were centrifuged for 30 seconds at 14,000×g and supernatant (cytoplasmic fraction) was saved for further analysis. Remaining pellet, which contains nuclei, were resuspended with 50 μl of provided complete lysis buffer with 1 mM dithiothreitol (DTT), vortexed 10 seconds, and incubated for 30 minutes on ice. After 30-second vortexing and 10-minute centrifugation at 14,000×g, the supernatant was collected and analyzed as nuclear fraction.

[2] = test system: XBP1s; test: XBP1s phosphorylation at Thr48 and Ser61 in cells (MS/MS, phospho-specific antibodies); assay type: cell-based, mouse; details: anisomycin 25 ng/ml
Protocol: MEFs were infected with flag-tagged XBP1s expressing adenovirus and treated with anisomycin (25 ng/ml) for 2 h. Cells were washed with ice-cold PBS and lysed with RIPA buffer (50 mM Tris-HCl, pH 7.5; 2 mM EGTA; 0.3% CHAPS; 100 mM NaF; 10 mM Na4P2O7; 1 mM Na3VO4; 10 μg/ml Leupeptin; 10 μg/ml Aprotinin; 2 mM PMSF and 20 nM Okadaic acid). After overnight incubation with anti-flag antibody, Protein A sepharose beads were added for additional 2 h at 4° C. Immunoprecipates were washed three times with RIPA buffer containing 150 mM NaCl and boiled for 5 min in 2× Laemmli buffer for elution of immunoprecipitated XBP1s. Samples were resolved in SDS-PAGE and stained with Coomassie blue (Bio-Rad). Protein from Coomassie-stained gel bands was digested with trypsin and the resulting peptide mixtures were subjected to microcapillary liquid chomatography tandem mass spectrometry (LC-MS/MS). MS/MS spectra were assigned by searching them with the XBP1s protein sequence using the SEQUEST algorithm.
Similar results were obtained from XBP1s^Ser61 phosphorylation.

SMILES: COc1ccc(C[C@H]2NC[C@H](O)[C@H]2OC(C)=O)cc1 [anisomycin]
- cytoplasmic levels of XBP1s vs vehicle-treated cells [1]: 28.8 times
- nuclear levels of XBP1s vs vehicle-treated cells [1]: 141.8 times
- phosphorylation of XBP1s at Ser61 [2]: increases phosphorylation of XBP1s at Ser61; also recorded: strongly induced phosphorylation of XBP1s at Ser61
- phosphorylation of XBP1s at Thr48 [2]: greatly increased phosphorylation of the Thr48 residue
